Measurements taken from PMC6032158, “Structure–Activity Relationship of Piplartine and Synthetic Analogues against Schistosoma mansoni and Cytotoxicity to Mammalian Cells” (International Journal of Molecular Sciences, 2018).

Tested on: J774A.1 cells
Assay: Cell death mechanism, annexin-V FITC / propidium iodide staining by flow cytometry
Format: cell-based, mouse
Conditions: J774A.1, 24 h; piplartine 25 μg/mL, 14B 400 μg/mL
Method: Cells were then treated with 2 µL of annexin-V FITC (Apoptosis Detection Kit; BD Biosciences, Franklin Lakes, NJ, USA) and 2 µL of propidium iodide (PI, 50 µg/mL) for 15 min in the dark at room temperature. Next, 100 µL binding buffer was added and samples were analysed by flow cytometry (BD LSFortessa^TM, Franklin Lakes, NJ, USA). A total of 20,000 events were collected per sample.

SMILES: OO [Compound H2O2, hydrogen peroxide, reference compound]
- annexin-V FITC staining (apoptosis marker) vs DMEM negative control (in words): significant (p < 0.05) increase in annexin-V FITC fluorescence intensity
